Test system: pT286 CaMKII
Assay: CaMKII T286 phosphorylation in hippocampal cultures after chemical LTP stimulation
Type: cell-based
Protocol: In this Example, other possibilities of AS283 action were tested. If AS283 blocks pT286 but not LTP because it also circumvents the need of pT286 for LTP, then AS283 should not only fail to block LTP in WT mice (as illustrated in FIGS. 3A-3B) but should also restore the capacity for LTP induction in T286A mutant mice. […] Specifically, in an exemplary method, the addition of AS283 (10 μM) enabled LTP in slices from the T286A mutant mice (FIGS. 3C-3D).
Immunoblot analysis. Protein concentration was determined using the Pierce BCA protein assay (Thermo-Fisher). Before undergoing SDS-PAGE, samples were boiled in Laemmli sample buffer for 5 min at 95° C. Proteins were separated in a resolving phase polymerized from 10% acrylamide, then transferred to a polyvinylidene difluoride membrane at 24 V for 1-2 h at 4° C. […] Blots were developed using chemiluminescence (Super Signal West Femto, Thermo-Fisher) imaged using the Chemi-Imager 4400 system (Alpha-Innotech), or imaged directly by fluorescence (Cytiva CyDye 700 goat anti-mouse and CyDye 800 goat anti-rabbit secondary antibodies.) using an OdysseyFc imaging instrument. All immunoblots were analyzed by densitometry (ImageJ). […]

NCCNc1cccc(-c2ccnc3[nH]c4ccccc4c23)c1 [AS283]
increase in pT286 levels after chemical LTP stimulation: specifically blocked increase in pT286 levels
